pIC50: −log10 of the molar value.
How the values were obtained:
[1] = target: recombinant human DPPI (Cathepsin C) (Homo sapiens (Human), UniProt P53634); experiment: Inhibition of human DPPI (Cathepsin C); type: biochemical; conditions: substrate Gly-Arg-AMC 50 μM, 30 min, room temperature
Source text: Inhibition of Human DPPI (Cathepsin C)
Materials: Microtiterplates (Optiplate-384 F) were purchased from PerkinElmer (Prod. No. 6007270). The substrate Gly-Arg-AMC was from Biotrend (Prod.-No. 808756 Custom peptide). Bovine serum albumin (BSA; Prod. No. A3059) and Dithiothreitol (DTT; Prod. No D0632) were from Sigma. TagZyme buffer was from Riedel-de-Haen (Prod.-No. 04269), NaCl was from Merck (Prod.-No. 1.06404.1000) and morpholinoethane sulfonic acid (MES), was from Serva (Prod.-No. 29834). The DPP1 inhibitor Gly-Phe-DMK was purchased from MP Biomedicals (Prod.-No. 03DK00625). The recombinant human DPPI was purchased from Prozymex. All other materials were of highest grade commercially available.
The following buffers were used: MES buffer: 25 mM MES, 50 mM NaCl, 5 mM DTT, adjusted to pH 6.0, containing 0.1% BSA; TAGZyme Buffer: 20 mM NaH2PO4, 150 mM NaCl adjusted to pH 6.0 with HCl
The recombinant human DPPI was diluted in TAGZyme buffer to 1 U/ml (38.1 μg/ml, respectively), and then activated by mixing in a 1:2 ratio with a Cysteamine aqueous solution (2 mM) and incubating for 5 min at room temperature.
Five uL test compound (final concentration 0.1 nM to 100 μM) in aqua bidest (containing 4% DMSO, final DMSO concentration 1%) were mixed with 10 μL of DPPI in MES buffer (final concentration 0.0125 ng/μL) and incubated for 10 min. Then, 5 μL of substrate in MES buffer (final concentration 50 μM) were added. The microtiter plates were then incubated at room temperature for 30 min. Then, the reaction was stopped by adding 10 μL of Gly-Phe-DMK in MES-buffer (final concentration 1 μM). The fluorescence in the wells was determined using a Molecular Devices SpectraMax M5 Fluorescence Reader (Ex 360 nm, Em 460 nm) or an Envision Fluorescence Reader (Ex 355 nm, Em 460 nm).
The analysis of the data was performed by calculating the percentage of fluorescence in the presence of test compound in comparison to the fluorescence of the vehicle control after subtracting the background fluorescence using the following formula: (RFU(sample)−RFU(background))*100/(RFU(control)−RFU(background))
Data from these calculations were used to generate IC50 values for inhibition of DPPI, respectively.

[2] = target: recombinant human Cathepsin K (Homo sapiens (Human), UniProt P43235); experiment: Inhibition of human Cathepsin K; type: biochemical; conditions: substrate Z-Gly-Pro-Arg-AMC 12.5 μM, 60 min, room temperature
recombinant human Cathepsin K, sequence (P43235 115-329): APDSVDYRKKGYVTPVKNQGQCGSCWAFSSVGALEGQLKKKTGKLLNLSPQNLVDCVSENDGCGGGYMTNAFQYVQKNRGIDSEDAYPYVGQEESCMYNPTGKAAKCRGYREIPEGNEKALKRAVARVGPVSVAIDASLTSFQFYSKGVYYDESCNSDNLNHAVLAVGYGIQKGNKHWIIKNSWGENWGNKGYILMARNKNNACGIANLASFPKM
Source text: Inhibition of Human Cathepsin K
Materials: Microtiterplates (Optiplate-384 F were purchased from PerkinElmer (Prod. No. 6007270). The substrate Z-Gly-Pro-Arg-AMC was from Biomol (Prod.-No. P-142). L-Cysteine (Prod. No. 168149) was from Sigma. Sodium actetate was from Merck (Prod.-No. 6268.0250), EDTA was from Fluka (Prod.-No. 03680). The inhibitor E-64 was purchased from Sigma (Prod.-No. E3132). The recombinant human Cathepsin K proenzyme was purchased from Biomol (Prod. No. SE-367). All other materials were of highest grade commercially available.
The following buffers were used: Activation buffer: 32.5 mM sodium acetate, adjusted to pH 3.5 with HCl; Assay buffer: 150 mM sodium acetate, 4 mM EDTA, 20 mM L-Cysteine, adjusted to pH 5.5 with HCl,
To activate the proenzyme, 5 μl procathepsin K were mixed with 1 ul activation buffer, and incubated at room temperature for 30 min.
5 μL test compound (final concentration 0.1 nM to 100 μM) in aqua bidest (containing 4% DMSO, final DMSO concentration 1%) were mixed with 10 uL of Cathepsin K in assay buffer (final concentration 2 ng/μL) and incubated for 10 min. Then 5 μL of substrate in assay buffer (final concentration 12.5 μM) were added. The plates were then incubated at room temperature for is 60 min. Then, the reaction was stopped by adding 10 μL of E64 in assay buffer (final concentration 1 μM). The fluorescence in the wells was determined using a Molecular Devices SpectraMax M5 Fluorescence Reader (Ex 360 nm, Em 460 nm).
Each assay microtiter plate contains wells with vehicle controls (1% DMSO in bidest) as reference for non-inhibited enzyme activity (100% Ctl; high values) and wells with inhibitor (E64 in bidest+1% DMSO, final concentration 1 μM) as controls for background fluorescence (0% Ctl; low values). The analysis of the data was performed by calculating the percentage of fluorescence in the presence of test compound in comparison to the fluorescence of the vehicle control after subtracting the background fluorescence: (RFU(sample)−RFU(background))*100/(RFU(control)−RFU(background))
Data from these calculations were used to generate IC50 values for inhibition of Cathepsin K, respectively.

[3] = Metabolic stability with human liver microsomes; type: in vitro ADME; conditions: pH 7.6; pooled human liver microsomes, 37° C., 1 μM test compound, 1 mg/ml protein, NADPH; read-out: In vitro stability in human liver microsome incubations t1/2
Experimental: Determination of Metabolic Stability with Human Liver Microsomes
The metabolic degradation of the test compound is assayed at 37° C. with pooled human liver microsomes. The final incubation volume of 100 μl per time point contains TRIS buffer pH 7.6 (0.1 M), magnesium chloride (5 mM), microsomal protein (1 mg/ml) and the test compound at a final concentration of 1 μM. Following a short preincubation period at 37° C., the reactions are initiated by addition of beta-nicotinamide adenine dinucleotide phosphate, reduced form (NADPH, 1 mM) and terminated by transfering an aliquot into acetonitrile after different time points. Additionally, the NADPH-independent degradation is monitored in incubations without NADPH, terminated at the last time point. The [%] remaining test compound after NADPH independent incubation is reflected by the parameter c(control) (metabolic stability). The quenched incubations are pelleted by centrifugation (10′000 g, 5 min). An aliquot of the supernatant is assayed by LC-MS/MS for the amount of parent compound.
The half-life (t1/2 INVITRO) is determined by the slope of the semilogarithmic plot of the concentration-time profile. The intrinsic clearance (CL_[…]) is calculated by considering the amount of protein in the incubation: CL_[…][μl/min/mg protein]=(In 2/(half-life[min]*protein content[mg/ml]))*1′000. The half-life (t1/2 INVITRO) values of selected compounds in the metabolic stability assay described above are listed in the following table

[4] = tested on: Neutrophil elastase activity in U937 cells; experiment: Neutrophil elastase activity in U937 cytosolic lysate after incubation with test compound; type: cell-based; conditions: Homo sapiens, U-937; U937 cells incubated 48 hours with compound; NE activity in lysate; read-out: Reduction of NE-activity in U937 cells IC50
Experimental: Determination of Neutrophil Elastase Activity in U937 Cytosolic Lysate Preparation after Incubation with Test Compound Materials: Optiplate 384F were purchased from PerkinElmer (Prod. No. #6007270). 24 well Nunclon cell culture plates (No. 142475) and 96 well plates (No. 267245) were from Nunc. Dimethylsulfoxid (DMSO) was from Sigma (Prod. No. D8418). Nonidet-P40 (NP40) was from USBiological (Prod. No. N3500) Substrate, specific for Neutrophil elastase, was from Bachem (MeOSuc-Ala-Ala-Pro-Val-AMC; Prod. No. I-1270). Human neutrophil elastase was from Calbiochem (Prod. No. 324681) Buffers: Tris-buffer (100 mM Tris; 1M NaCL; pH 7.5) Tris-buffer+HSA 0.1%; Human Serum Albumin from Calbiochem (Cat#. 126658) Serine-protease buffer (20 mM Tris; 100 mM NaCL; pH 7.5)+0.1% HSA Serine protease lysis buffer: 20 mM Tris-HCL; 100 mM NaCl pH 7.5; +0.2% Nonidet-P40; PBS: phosphate buffered saline, without Ca and Mg, from Gibco Cell Culture: U937 from ECACC (Cat. No. 85011440) cultured in suspension at 37° C. and 5% CO2. Cell density: 0.2-1 Mio. Cells/ml. Medium: RPMI1640 GlutaMAX (No. 61870) with 10% FCS from Gibco Cell Seeding and Treatment: Compounds in 100% DMSO were diluted in Medium (—FCS) with 10% DMSO and further diluted according to the experiment planned. 20 μl of the compound solution was transferred in the respective wells of the 24 well plate and diluted with 2 ml cell suspension/well containing 1′10^5 cells/ml (final concentration of DMSO=0.1%). Compound dilution factor=100 Compounds (up to 7 concentrations) were tested in triplicates with 3 wells for the DMSO 0.1% control, incubated for 48 hours without medium change at 37° C., 5% CO2 and 95% relative to humidity. Cell Harvesting and Cell Lysate:
Transfer the cell suspension in 2.2 ml Eppendorf cups. Separate cells from medium by centrifugation (400×g; 5 min; RT); discard the supernatant. Resuspend in 1 ml PBS; centrifugation (400×g; 5 min; RT); wash cells twice with PBS. Add 100 μl Serin lysis buffer (ice cold) to the cell pellet; resuspend the pellet and store on ice for 15 minutes. Remove debris by centrifugation at 15000×g for 10 min at 4° C. Transfer 80-100 μl lysate supernatant in 96 well plate and store immediately at −80° C.
Neutrophil Elastase Activity Assay:
Frozen lysates were thawn at 37° C. for 10 minutes and stored on ice. Protein content was determined with Bradford protein assay. Lysates were diluted to 0.2-0.5 mg/ml protein in serine protease buffer+HSA.
Standard: NE (100 μg/ml stocksolution in Tris-buffer; stored at −80° C.) was diluted in Tris-buffer+HSA to 750 ng/ml, and further serially diluted 1:2 for the standard curve.
Buffer, blank, standard and lysate samples were transferred into 384 well plate
The increase in fluorescence (Ex360 nm/Em 460 nm) is determined over 30 minutes with a Molecular Device Spectramax M5 Fluorescence Reader. Kinetic Reduction (Vmax units/sec); 4 vmax points. The amount of neutrophil elastase (ng/ml) is calculated using the standard curve and the Spectramax software. The result is interpolated to ng/mg lysate protein using excel formula functions. […] IC50 is calculated using Graphpad Prism; nonlinear fitting (log(inhibitor) vs. response—Variable slope). The IC50 value is interpolated as the concentration of test compound which leads to a neutrophil elastase activity reduction of 50% (relative to the DMSO-treated control).

recombinant human DPPI (Cathepsin C), sequence (P53634 231-394): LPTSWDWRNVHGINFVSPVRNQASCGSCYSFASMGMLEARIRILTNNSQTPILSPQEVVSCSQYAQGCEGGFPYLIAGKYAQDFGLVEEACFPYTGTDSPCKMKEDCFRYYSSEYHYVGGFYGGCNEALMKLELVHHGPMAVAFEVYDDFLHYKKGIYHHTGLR
recombinant human DPPI (Cathepsin C), sequence (P53634 395-463): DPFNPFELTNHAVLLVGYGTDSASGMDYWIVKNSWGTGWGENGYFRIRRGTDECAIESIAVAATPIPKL
recombinant human DPPI (Cathepsin C), sequence (P53634 25-134): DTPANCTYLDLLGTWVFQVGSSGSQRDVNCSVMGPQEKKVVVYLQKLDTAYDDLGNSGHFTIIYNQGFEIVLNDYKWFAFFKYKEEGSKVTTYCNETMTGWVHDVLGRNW

pIC50 [1] | pIC50 [2] | half-life at 1 μM [3] | pIC50 [4] | Compound
6.91 | 5.17 | – | – | CS(=O)(=O)Nc1ccc(-c2ccc(C[C@@H](C#N)NC(=O)[C@H]3NC4CCC3CC4)cc2)cc1 [Example 17]
6.60 | – | – | – | N#Cc1cc(-c2ccc(C[C@@H](C#N)NC(=O)[C@H]3NC4CCC3CC4)cc2)ccn1 [Example 24]
6.80 | – | – | – | COCCN1C(=O)Cc2ccc(-c3ccc(C[C@@H](C#N)NC(=O)[C@H]4NC5CCC4CC5)cc3)cc21 [Example 21]
7.28 | – | – | – | CN1C(=O)Cc2ccc(-c3ccc(C[C@@H](C#N)NC(=O)[C@H]4NC5CCC4CC5)cc3)cc21 [Example 6]
6.88 | 5.01 | – | – | N#C[C@H](Cc1ccc(-c2cccc(C(N)=O)c2)cc1)NC(=O)[C@H]1NC2CCC1CC2 [Example 18]
6.96 | – | – | – | CS(=O)(=O)c1ccc(-c2ccc(C[C@@H](C#N)NC(=O)[C@H]3NC4CCC3CC4)cc2)cc1 [Example 15]
6.99 | 4.97 | – | – | N#C[C@H](Cc1ccc(-c2ccc(S(N)(=O)=O)cc2)cc1)NC(=O)[C@H]1NC2CCC1CC2 [Example 13]
7.14 | 4.83 | > 2.17 h | – | N#Cc1ccc(-c2ccc(C[C@@H](C#N)NC(=O)[C@H]3NC4CCC3CC4)cc2)cc1 [Example 9]
6.86 | – | – | – | N#C[C@H](Cc1ccc(-c2ccc3c(c2)CCNC3=O)cc1)NC(=O)[C@H]1NC2CCC1CC2 [Example 20]
7.56 | – | – | – | CS(=O)(=O)c1ccc(-c2ccc(C[C@@H](C#N)NC(=O)C3NC4CCC3CC4)c(F)c2)cc1C#N (stereo partly drawn) [Example 26]
7.13 | – | – | – | CN1Cc2cc(-c3ccc(C[C@@H](C#N)NC(=O)[C@H]4NC5CCC4CC5)c(F)c3)ccc2S1(=O)=O [Example 27]
6.99 | – | – | – | N#C[C@H](Cc1ccc(-c2ccc3c(c2)CC(=O)N3)cc1)NC(=O)[C@H]1NC2CCC1CC2 [Example 14]
6.61 | – | – | – | N#C[C@H](Cc1ccc(-c2cc(F)c(F)c(F)c2)cc1)NC(=O)[C@H]1NC2CCC1CC2 [Example 23]
6.78 | – | – | – | CCS(=O)(=O)c1ccc(-c2ccc(C[C@@H](C#N)NC(=O)[C@H]3NC4CCC3CC4)cc2)cc1 [Example 22]
– | 5.57 | 2 h | 6.87 | CS(=O)(=O)c1cc(-c2ccc(C[C@@H](C#N)NC(=O)[C@H]3NC4CCC3CC4)c(F)c2)ccc1C#N [Example 1, (2S)—N-[(1S)-1-cyano-2-[4-(4-cyano-3-methylsulfonyl-phenyl)-2-fluoro-phenyl]ethyl]-3-azabicyclo[2.2.2]octane-2-carboxamide]
6.93 | – | – | – | N#C[C@H](Cc1ccc(-c2ccc(C(N)=O)cc2)cc1)NC(=O)[C@H]1NC2CCC1CC2 [Example 16]
7.01 | – | – | – | CN1Cc2ccc(-c3ccc(C[C@@H](C#N)NC(=O)[C@H]4NC5CCC4CC5)c(F)c3)cc2C1 [Example 25]
